Values quoted from earlier work, collected in patent US8440424B2, “Identification of antibiotic resistance using labelled antibiotics” (miacom Diagnostics GmbH, priority 2008, dated 2013).
Like-named read-outs stand apart in the source and are kept apart here. Positions of bridges follow the written chain, without caps; N, C: chain ends. Non-standard residues stand in square brackets, D forms with d. Residues, ends and D or L forms follow the SMILES beside them. *: point of attachment. NMePhe(4-NMe2) = CN[C@@H](Cc1ccc(N(C)C)cc1)C(=O)O; Pip(4-oxo) = O=C1CCN[C@H](C(=O)O)C1; Picolinoyl(3-OH) = O=C(c1ncccc1O)*; Phg = N[C@H](C(=O)O)c1ccccc1; dAbu = CC[C@@H](N)C(=O)O

Tested on: 23S rRNA
Settings: cited from earlier work
[1] = 23S rRNA position 2611 "C to G", Chlamydomonas reinhardtii, Gauthier et al. 1988
[2] = 23S rRNA position 2611 "C to G", Yeast mitochondria, Sor and Fukahara 1984
[3] = 23S rRNA position 2611 "C to G", Chlamydomonas reinhardtii, Harris et al. 1989
[4] = 23S rRNA position 2611 "C to U", Chlamydomonas reinhardtii, Harris et al. 1989

## CC[C@H]1OC(=O)[C@H](C)[C@@H](O[C@H]2C[C@@](C)(OC)[C@@H](O)[C@H](C)O2)[C@H](C)[C@@H](O[C@@H]2O[C@H](C)C[C@H](N(C)C)[C@H]2O)[C@](C)(O)C[C@@H](C)C(=O)[C@H](C)[C@@H](O)[C@]1(C)O [Erythromycin]
23S rRNA double deletion (1230/1231), E. coli
  Phenotype: Erythromycin sensitive. a Double
23S rRNA double mutant (C1207U/C1243U), E. coli
  Phenotype: Erythromycin resistant. a Double
23S rRNA double mutant (C1208U/C1243U), E. coli
  Phenotype: Erythromycin resistant. a Double
23S rRNA double mutant (C1211U/C1208U), E. coli
  Phenotype: Erythromycin sensitive. a Double
23S rRNA double mutant (C1221U/C1229U), E. coli
  Phenotype: Erythromycin resistant. a Double
23S rRNA double mutant (C1221U/C1233U), E. coli
  Phenotype: Erythromycin resistant. a Double
23S rRNA double mutant (C1243U/C1221U), E. coli
  Phenotype: Erythromycin resistant. a Double
23S rRNA double mutant (G1220A/G1239A), E. coli
  Phenotype: Erythromycin resistant. a Double
23S rRNA double mutant (G1232A/G1238A), E. coli
  Phenotype: Erythromycin sensitive. a Double
23S rRNA position 1233 C to U, E. coli
  Phenotype: Erythromycin sensitive. a
23S rRNA position 1234 U to C, E. coli
  Phenotype: Erythromycin sensitive. a
23S rRNA position 1234 del1234/del1235, double mutant (U1234C/del1235), E. coli
  Phenotype: Erythromycin sensitive. a Double
23S rRNA position 2058 A to G, Yeast mitochondria
  Phenotype: resistance.
[1]
  Phenotype: spiramycin resistance
[2]
  Phenotype: spiramycin resistance

## CC[C@H]1OC(=O)[C@H](C)[C@@H](O[C@H]2C[C@@](C)(OC)[C@@H](O)[C@H](C)O2)[C@H](C)[C@@H](O[C@@H]2O[C@H](C)C[C@H](N(C)C)[C@H]2O)[C@](C)(O)C[C@@H](C)C(=O)[C@H](C)[C@@H](O)[C@]1(C)O [erythromycin]
23S rRNA double mutant (A1262G/U2017C), E. coli, growth on erythromycin
  Phenotype: Wild-type growth on
23S rRNA double mutant (A1262U/U2017A), E. coli, growth on erythromycin
  Phenotype: Wild-type growth on
23S rRNA double mutant (G1137A/G1138C), E. coli, with 2058G and erythromycin, expressed from rrnB promoter
  Phenotype: lethal when expressed from rrnB
23S rRNA position 1068 G to A, E. coli, with 2058G, expressed from rrnB or pL promotor in presence of erythromycin
  Phenotype: 2058G) Lethal when
23S rRNA position 1072 C to U, E. coli, expressed from rrnB or pL promotor in presence of erythromycin
  Phenotype: Lethal when expressed from
23S rRNA position 1137 G to A, E. coli, with 2058G and erythromycin, expressed from rrnB promoter
  Phenotype: lethal when expressed from rrnB
23S rRNA position 1138 G to C, E. coli, with 2058G and erythromycin, expressed from rrnB promoter
  Phenotype: lethal when expressed from rrnB
23S rRNA position 1262 A to C, E. coli, with erythromycin
  Phenotype: With erythromycin; lethal
23S rRNA position 1262 A to G, E. coli, with erythromycin
  Phenotype: With erythromycin; lethal

## spiramycin
[1]
  Phenotype: spiramycin resistance
[2]
  Phenotype: spiramycin resistance

## C=C(NC(=O)C(=C)NC(=O)c1csc(C2=N[C@@H]3c4csc(n4)[C@H]4NC(=O)c5csc(n5)[C@H]([C@](C)(O)[C@@H](C)O)NC(=O)[C@H]5CSC(=N5)/C(=C/C)NC(=O)[C@H]([C@@H](C)O)NC(=O)c5csc(n5)[C@]3(CC2)NC(=O)[C@H](C)NC(=O)C(=C)NC(=O)[C@H](C)NC(=O)[C@H]([C@@H](C)CC)N[C@@H]2C=Cc3c([C@H](C)O)cc(nc3[C@H]2O)C(=O)O[C@@H]4C)n1)C(N)=O [thiostrepton]
23S rRNA position 1056 G to C, E. coli
  Phenotype: binding in RNA fragments: weakened in RNA
23S rRNA position 1067 A to C, E. coli
  Phenotype: drug binding affinity: affinity is reduced similarly.
23S rRNA position 1067 A to G, E. coli
  Phenotype: drug binding affinity: affinity is reduced similarly.
23S rRNA position 1067 A to U, E. coli
  Phenotype: drug binding affinity: affinity is reduced similarly.
23S rRNA position 1067 A to U, E. coli, mutant constituted 30% of the total 23S rRNA pool in the ribosomes
  Phenotype: thiostrepton resistance in poly (U) translation: ribosomes; exhibited 30%

## CC[C@H]1OC(=O)[C@H](C)[C@@H](O[C@H]2C[C@@](C)(OC)[C@@H](O)[C@H](C)O2)[C@H](C)[C@@H](O[C@@H]2O[C@H](C)C[C@H](N(C)C)[C@H]2O)[C@](C)(O)C[C@@H](C)C(=O)[C@H](C)[C@@H](O)[C@]1(C)O [Ery]
23S rRNA double mutation (A2058U/G2032A), E. coli
  Phenotype: hs
23S rRNA double mutation (G2032A/A2058U), E. coli
  Phenotype: hs
23S rRNA double mutation (G2057A/C2661U), E. coli
  Phenotype: Slightly Eryr;
[3]
  Phenotype: Eryr
[4]
  Phenotype: Eryr
23S rRNA position 2611 "C to U", double mutation (C2611U/G2057A), E. coli, Vester et al. 1995
  Phenotype: Slightly Eryr; reduced

## COc1ccc(C[C@H]2NC[C@H](O)[C@H]2OC(C)=O)cc1 [Anisomycin]
23S rRNA position 2447 G to C, Halobacterium halobium, Hummel 1987
  Phenotype: resistance.
23S rRNA position 2453 A to C, Halobacterium halobium, Hummel 1987
  Phenotype: Anisomycin resistance

## C[C@H]1O[C@H](O[C@H]2CC[C@H](n3ccc(NC(=O)c4ccc(NC(=O)[C@@](C)(N)CO)cc4)nc3=O)O[C@@H]2C)[C@H](O)[C@@H](O)[C@@H]1N(C)C [Amicetin]
23S rRNA position 2438 U to A, Halobacterium halobium, Leviev 1994
  Phenotype: Amicetin resistance
23S rRNA position 2438 U to C, Halobacterium halobium, Leviev 1994
  Phenotype: Amicetin resistance.

## COc1ccc(C[C@H]2NC[C@H](O)[C@H]2OC(C)=O)cc1 [Animosycin]
23S rRNA position 2452 C to U, Halobacterium, Hummel 1987
  Phenotype: Animosycin resistance.
23S rRNA position 2452 C to U, Tetrahymena thermophilia, Sweeney 1991
  Phenotype: Animosycin resistance

## CCC[C@@H]1C[C@@H](C(=O)N[C@@H]([C@H]2O[C@H](SC)[C@H](O)[C@@H](O)[C@H]2O)[C@@H](C)O)N(C)C1 [lincomycin]
[3]
  Phenotype: low level
[4]
  Phenotype: low level

## CC[C@H]1OC(=O)[C@H](C)[C@@H](O[C@H]2C[C@@](C)(OC)[C@@H](O)[C@H](C)O2)[C@H](C)[C@@H](O[C@@H]2O[C@H](C)C[C@H](N(C)C)[C@H]2O)[C@](C)(OC)C[C@@H](C)C(=O)[C@H](C)[C@@H](O)[C@]1(C)O [Clarithomycin]
23S rRNA position 2059 A to G, Helicobacter pylori
  Phenotype: resistance.

## O=C(N[C@H](CO)[C@H](O)c1ccc([N+](=O)[O-])cc1)C(Cl)Cl [chloramphenicol]
23S rRNA position 2505 G to A, E. coli, Hansen 1999
  Phenotype: Conferred resistance to

## CSC[S@+]([O-])C[C@H](CO)NC(=O)/C=C/c1c(C)[nH]c(=O)[nH]c1=O [sparsomycin]
23S rRNA position 2452 C to U, Halobacterium halobium, Tan 1996
  Phenotype (level of resistance): Low level sparsomycin

## O=C(N[C@H](CO)[C@H](O)c1ccc([N+](=O)[O-])cc1)C(Cl)Cl [Chloramphenicol]
23S rRNA position 2061 G to A, Rat mitochondria
  Phenotype: resistance
23S rRNA position 2062 A to C, Halobacterium halobium
  Phenotype: resistance.
23S rRNA position 2447 G to A, Yeast mitochondria, Dujon 1980
  Phenotype: resistance.
23S rRNA position 2451 A to U, Mouse mitochondria, Kearsey 1981
  Phenotype: resistance.
23S rRNA position 2452 C to A, Human mitochondria, Blanc 1981
  Phenotype: resistance.
23S rRNA position 2452 C to U, Halobacterium halobium, Mankin 1991
  Phenotype: resistance.
23S rRNA position 2452 C to U, Mouse mitochondria, Slott 1983
  Phenotype: resistance
23S rRNA position 2503 A to C, Yeast mitochondria, Dujon 1980
  Phenotype: resistance
23S rRNA position 2504 U to C, Human mitochondria, Kearsey 1981
  Phenotype: resistance
23S rRNA position 2504 U to C, Mouse mitochondria, Blanc 1981
  Phenotype: resistance

## CCC[C@@H]1C[C@@H](C(=O)N[C@@H]([C@H]2O[C@H](SC)[C@H](O)[C@@H](O)[C@H]2O)[C@@H](C)O)N(C)C1 [Lincomycin]
23S rRNA position 2032 G to A, Tobbaco chloroplasts
  Phenotype: resistance.
23S rRNA position 2058 A to G, Chlamydomonas reinhardtii
  Phenotype: resistance.
23S rRNA position 2058 A to G, Solanum nigrum
  Phenotype: resistance.
23S rRNA position 2058 A to G, Tobacco chloroplasts
  Phenotype: resistance.
23S rRNA position 2059 A to G, Tobacco chloroplasts
  Phenotype: resistance.

## CSC[S@+]([O-])C[C@H](CO)NC(=O)/C=C/c1c(C)[nH]c(=O)[nH]c1=O [Sparsomycin]
23S rRNA position 2499 C to U, Halobacterium halobium, Tan 1996
  Phenotype: resistance

## CC[C@H]1NC(=O)[C@@H](NC(=O)c2ncccc2O)[C@@H](C)OC(=O)[C@H](c2ccccc2)NC(=O)[C@@H]2CC(=O)CCN2C(=O)[C@H](Cc2ccc(N(C)C)cc2)N(C)C(=O)[C@@H]2CCCN2C1=O [pristinamycin 1A] ({Picolinoyl(3-OH)}-T[dAbu]P[NMePhe(4-NMe2)][Pip(4-oxo)][Phg]; ester 1-C)
23S rRNA A2602C/C2501A, E. coli, binding on peptidyl transferase loop, Porse 1999
  Phenotype: Inhibits binding of 1A
23S rRNA U2500A/C2501A, E. coli, binding on peptidyl transferase loop, Porse 1999
  Phenotype: Inhibits binding of 1A
